Values quoted from earlier work as cited in the PKSmart pharmacokinetics tables (Seal et al. 2025).

Assays:
[1] = Lombardo, Berellini, Obach 2018, Drug Metab Dispos 46:1466, doi 10.1124/dmd.118.082966; conditions: human; for MRT / Vd / clearance / half-life: in vivo, iv; for fraction unbound: plasma
[2] = Lombardo et al. 2013, J Clin Pharmacol 53:178, doi 10.1177/0091270012440282; conditions: for Vd / clearance: in vivo, iv; for fraction unbound: plasma

| Structure (SMILES) | MRT [1] [h] | Vd [1] [L/kg] | clearance [1] [mL/min/kg] | half-life [1] [h] | fraction unbound [1] | Vd ([2]; rat) [L/kg] | clearance ([2]; rat) [mL/min/kg] | Vd ([2]; dog) [L/kg] | clearance ([2]; dog) [mL/min/kg] | fraction unbound ([2]; dog) | Vd ([2]; monkey) [L/kg] | clearance ([2]; monkey) [mL/min/kg] | fraction unbound ([2]; monkey) | fraction unbound ([2]; rat) |
| --- | --- | --- | --- | --- | --- | --- | --- | --- | --- | --- | --- | --- | --- | --- |
| Nc1nc(N)c2nc(-c3ccccc3)c(N)nc2n1 | 3.4 | 13 | 63 | 4.3 | 0.42 | 2.2 | 10.1 |  |  |  |  |  |  |  |
| c1ccc(C2(N3CCCCC3)CCCCC2)cc1 | 23 | 6.9 | 5.1 | 16 |  | 12.6 | 66.3 | 16.6 | 54.1 | 0.43 | 6.78 | 36.6 | 0.314 | 0.37 |
| Nc1ccn([C@@H]2O[C@H](CO)[C@@H](O)C2(F)F)c(=O)n1 | 0.81 | 1.5 | 32 | 1 | 1 | 1 | 5 | 1.41 | 10.8 | 0.765 | 5.5 | 177 |  | 0.93 |
| CO[C@@]1(NC(=O)CSCC#N)C(=O)N2C(C(=O)O)=C(CSc3nnnn3C)CS[C@@H]21 | 1.5 | 0.13 | 1.5 | 1.5 | 0.15 | 0.35 | 25.3 | 0.9 | 8 | 0.75 | 0.3 | 3.3 | 0.34 | 0.55 |
| C[C@@H]1CN(C2CCC(C#N)(c3ccc(F)cc3)CC2)CC[C@]1(C(=O)O)c1ccccc1 (stereo partly drawn) | 45.3 | 1.17 | 0.43 | 33 | 0.453 | 1.36 | 27 |  |  |  |  |  |  | 0.46 |
| CCCC[C@@H]1CC(=O)[C@]2(O)O[C@@H]3[C@@H](NC)[C@@H](O)[C@@H](NC)[C@H](O)[C@H]3O[C@@H]2O1 | 6.9 | 0.7 | 1.7 | 11 | 0.65 | 4.46 | 4.28 | 49.8 | 2.69 | 0.533 |  |  |  | 0.62 |
| CN1CC[C@]23c4c5ccc(O)c4OC2C(=O)CC[C@H]3[C@H]1C5 (stereo partly drawn) |  |  |  | 2.3 |  |  |  | 5.8 | 71 |  |  |  |  |  |
| CCCC1O[C@@H]2C[C@H]3[C@@H]4CC=C5CC(=O)C=C[C@]5(C)[C@H]4[C@@H](O)C[C@]3(C)[C@]2(C(=O)CO)O1 (stereo partly drawn) | 3.2 | 3.9 | 20 | 2.8 |  | 29.2 | 72 |  |  |  |  |  |  | 0.039 |
| COc1ccc2c3c1O[C@H]1C[C@@H](O)C=C[C@@]31CCN(C)C2 | 6.8 | 2.3 | 5.6 | 5.3 |  | 5.2 | 31.7 | 2.78 | 12.3 | 0.981 |  |  |  | 0.75 |
| CN1CCN(C2=Nc3cc(Cl)ccc3Nc3ccccc32)CC1 | 11 | 1.6 |  | 10 |  | 8.68 |  |  |  |  |  |  |  |  |
| CSc1ccc(C(=O)c2[nH]c(=O)[nH]c2C)cc1 | 1.33 | 1.48 | 19.1 | 1.94 | 0.3 |  |  | 2.1 | 26 |  |  |  |  |  |
| C#C[C@]1(OS(=O)(=O)O)CC[C@H]2[C@@H]3CCc4cc(O)ccc4[C@H]3CC[C@@]21C | 7.8 | 0.61 | 1.3 | 9.3 |  |  |  |  |  |  | 8.7 | 13 |  |  |
| Nc1ccn([C@@H]2CO[C@H](CO)O2)c(=O)n1 | 6.9 | 1 | 2.4 | 82 |  | 1.42 | 23 |  |  |  |  |  |  |  |
| NC(Cc1ccc(O)c(O)c1)C(=O)O (stereo not drawn) | 1.2 | 1.7 | 23 | 1.3 | 0.76 |  | 109 | 0.76 | 23.7 |  |  |  |  |  |
| COc1cc([C@@H]2c3cc4c(cc3[C@@H](O[C@@H]3O[C@@H]5CO[C@@H](C)O[C@H]5[C@H](O)[C@H]3O)[C@H]3COC(=O)C23)OCO4)cc(OC)c1O (stereo partly drawn) | 6 | 0.18 |  | 5.7 |  | 0.58 | 23 | 1.4 | 13 | 0.63 | 0.16 | 1.5 | 0.0051 | 0.43 |
| O=P1(N(CCCl)CCCl)NCCCO1 (stereo not drawn) | 11 | 0.73 | 1.1 | 8 |  | 0.67 | 11.1 | 0.7 | 20 |  |  |  |  |  |
| C[C@]12CC[C@@H]3c4ccc(OC(=O)N(CCCl)CCCl)cc4CC[C@H]3[C@@H]1CC[C@@H]2OP(=O)(O)O | 2.1 | 0.12 | 0.94 | 2.4 | 0.5 |  |  | 0.16 | 2 |  |  |  |  |  |
| NCc1ccccc1CC(=O)NC1C(=O)N2C(C(=O)O)=C(CSc3nnnn3CC(=O)O)CS[C@H]12 (stereo partly drawn) | 4.3 | 0.17 | 0.66 | 3 | 0.19 | 0.5 | 5.4 | 0.5 | 6.5 |  |  |  |  |  |
| COc1ccc2c3c1O[C@H]1[C@@H](O)C=C[C@H]4[C@@H](C2)N(C)CC[C@@]341 | 3.9 | 3.5 | 15 | 4 | 0.7 |  |  |  |  |  |  |  |  | 0.92 |
| CCOC(=O)C1[C@@H](OC(=O)c2ccccc2)C[C@@H]2CC[C@H]1N2C (stereo partly drawn) | 2 | 1.6 | 13 | 1.5 | 0.64 |  |  | 2.68 | 42.2 |  |  |  |  |  |
| CC(=N)N1CC[C@H](SC2=C(C(=O)O)N3C(=O)C([C@@H](C)O)[C@H]3C2)C1 (stereo partly drawn) | 1.2 | 0.19 | 2.6 | 0.96 |  | 0.2 | 27.7 | 0.21 | 4.85 | 0.95 | 0.3 | 6.52 | 0.93 | 0.95 |
| O=c1c(O)c(-c2ccc(O)c(O)c2)oc2cc(O)cc(O)c12 | 0.2 | 0.12 | 11 | 0.6 | 0.009 | 0.28 | 116 |  |  |  |  |  |  |  |
| CC(C)N(CCC(C(N)=O)(c1ccccc1)c1ccccn1)C(C)C (stereo not drawn) | 9.6 | 0.52 | 0.9 | 7 | 0.16 |  | 34 | 1.27 | 9.87 |  |  |  |  |  |
| Nc1ccc(S(=O)(=O)c2ccc(N)cc2)cc1 | 29 | 0.83 |  |  | 0.25 | 1.6 | 5.2 |  |  |  |  |  |  |  |
| CCCN1CCCCC1C(=O)Nc1c(C)cccc1C (stereo not drawn) | 2.3 | 0.75 | 5.5 | 2.2 | 0.06 |  |  | 1.42 | 30 |  |  |  |  |  |
| CN(C)CCc1c[nH]c2ccc(Cn3cncn3)cc12 | 2 | 1.9 | 16 | 2.2 |  |  | 79 | 2.5 | 40 |  |  |  |  |  |
| Nc1ccn(C[C@@H](CO)OCP(=O)(O)O)c(=O)n1 | 3.3 | 0.49 | 2.5 | 2.6 |  | 2 | 0.7 |  |  |  | 0.8 | 3.5 |  | 1 |
| Cc1nc2n(c(=O)c1CCN1CCC(c3noc4cc(F)ccc34)CC1)CCCC2 |  |  |  | 3.2 |  | 3.6 | 71.7 |  |  | 0.083 |  |  | 0.084 | 0.118 |
